According to patent publication US20220072036A1, “METHOD FOR INHIBITING CORONAVIRUS AND METHOD FOR TREATING DISEASE ASSOCIATED WITH CORONAVIRUS INFECTION” (AMAZING FORTUNE CO., LTD., priority 2020, published 2022):

How the values were obtained:
[1] = biological target: SARS-CoV-2 papain-like protease (PLPro) (Severe acute respiratory syndrome coronavirus 2, UniProt P0DTD1); format: biochemical; details: SARS-CoV2 PLPro 0.9 μM, 30 min preincubation, FG6-pNA substrate, 30° C., 300 seconds; inhibitor concentrations per Table 1; mean±standard deviation
[2] = system: CC(C)C[C@H](NC(=O)[C@H](CCCNC(=N)N)NC(=O)[C@@H](N)Cc1ccccc1)C(=O)N[C@@H](CCCCN)C(=O)NCC(=O)NCC(=O)Nc1ccc([N+](=O)[O-])cc1; test: purified protein, by the assay type; details: pH 7.4; 30.0 °C

Row | Compound | Inhibition percentage [1] | Km [2] | kcat [2]
1 | [Zn+2] [Comparative Group 3] | 19.83 ± 0.88% |  | 
2 | [Mg+2] [Comparative Group 2] | 13.99 ± 0.11% |  | 
3 | SARS-CoV-2 PLpro (Severe acute respiratory syndrome coronavirus 2) |  | 2500 ± 30 µM | 0.85 ± 0.01 s⁻¹
